Data from patent US20260274818A1, “HETEROCYCLOALKYL BETA-HYDROXY ALKYL AMINES FOR USE IN THE TREATMENT OF HYPERGLYCAEMIA AND DISORDERS CHARACTERISED BY HYPERGLYCAEMIA” (ATROGI AB, priority 2023, published 2026).
Where a name gives a salt, the structure may show the parent alone.

Experiments:
L6-myotubes = test: Glucose uptake (3H-2-deoxyglucose) in differentiated L6-myotubes; assay type: cell-based; conditions: compound at 10 μM vs isoproterenol at 10 μM
Protocol: (§1) L6-myoblasts were grown in Dulbecco's Modified Eagle's Medium (DMEM) containing 1 g/L glucose supplemented with 10% fetal bovine serum, 2 mM L-Glutamine, 50 U/mL penicillin, […] streptomycin and 10 mM HEPES. Cells were plated at 1×10^5 cells per mL in 24-well plates. After reaching 90% confluence the cells were grown in medium containing 2% FBS for 7 days where upon cells differentiated into myotubes.
Differentiated L6-myotubes were serum-starved overnight in medium containing 0.5% fatty-acid free BSA and stimulated with an agonist, with a final concentration of 1×10^−5 M. After 1 h 40 min the cells were washed with warm glucose free medium or PBS twice and another portion of agonist was added to the glucose free medium. After 20 min the cells were exposed to 50 nM ^3H-2-deoxyglucose for another 10 min before washed in ice cold glucose free medium or PBS three times and lysed in 400 μL/well 0.2 M NaOH for 1 h at 60° C. The cell lysate was mixed with 4 mL scintillation buffer (Emulsifier Safe, Perkin Elmer) and the radioactivity was detected in a β-counter (Tri-Carb 4810TR, Perkin Elmer). The activity for each compound is compared to that of isoproterenol.

Intracellular cAMP = test: Measurement of intracellular cAMP levels in differentiated L6 cells (alpha screen cAMP kit); assay type: cell-based; conditions: compound at 10 μM for 15 min vs isoproterenol at 10 μM
Protocol: as §1
Differentiated cells were serum-starved overnight and stimulated with an agonist, final concentration 1×10^−5 M, for 15 min in stimulation buffer (HBSS supplemented with 1% BSA, 5 mM HEPES and 1 mM IBMX, pH 7.4). The medium was aspirated and 100 μL of 95% EtOH was added to each well of the 24-well plate and cells were kept at −20° C. overnight. The EtOH was allowed to evaporate and 500 μL of lysis buffer (1% BSA, 5 mM HEPES and 0.3% Tween-20, pH 7.4) was added to each well. The plate was kept at −80° C. for 30 min and then at −20° C. until the day of detection when the samples were thawed. Intracellular cAMP levels were detected using an alpha screen cAMP kit (6760635D from Perkin Elmer). The activity for each compound is compared to that of isoproterenol.

Row | SMILES | Biological example 1: glucose uptake, activity compared to that of isoproterenol (L6-myotubes) | Biological example 2: intracellular cAMP levels, activity compared to that of isoproterenol (Intracellular cAMP)
1 | OC(c1cccc(F)c1)[C@H]1CC[C@@H](CC2CCCNC2)N1 (stereo in doubt) [Example 3, (S)-(3-Fluorophenyl)((2R,5S)-5-(((R)-piperidin-3-yl)methyl)pyrrolidin-2-yl)methanol dihydrochloride] | + (if it is between 50 and 25% it is denoted with +) | − (if it less than 25% it is denoted with −)
2 | OC(c1cccc(F)c1)[C@H]1CC[C@@H](CC2CCCNC2)N1 (stereo in doubt) [Example 6, (R)-(3-Fluorophenyl)((2R,5S)-5-(((S)-piperidin-3-yl)methyl)pyrrolidin-2-yl)methanol dihydrochloride] | +++ (more than 75% of that of isoproterenol at 10 μM, the activity is denoted with +++) | − (if it less than 25% it is denoted with −)
3 | O[C@H](c1cccc(F)c1)[C@H]1CC[C@@H](CC2CCNCC2)N1 [Example 1, (R)-(3-Fluorophenyl)((2R,5S)-5-(piperidin-4-ylmethyl)pyrrolidin-2-yl)-methanol dihydrochloride] | ++ (if it is between 75 and 50% it is denoted with ++) | − (if it less than 25% it is denoted with −)
4 | O[C@@H](c1cccc(F)c1)[C@H]1CC[C@@H](CC2CCNCC2)N1 [Example 2, (S)-(3-Fluorophenyl)((2R,5S)-5-(piperidin-4-ylmethyl)pyrrolidin-2-yl)-methanol dihydrochloride] | + (if it is between 50 and 25% it is denoted with +) | − (if it less than 25% it is denoted with −)
5 | O[C@@H](c1cccc(F)c1)[C@H]1CC[C@@H](C[C@@H]2CCCNC2)N1 [Example 4, (S)-(3-Fluorophenyl)((2R,5S)-5-(((S)-piperidin-3-yl)methyl)pyrrolidin-2-yl)methanol dihydrochloride] | ++ (if it is between 75 and 50% it is denoted with ++) | − (if it less than 25% it is denoted with −)
6 | O[C@H](c1cccc(F)c1)[C@H]1CC[C@@H](C[C@H]2CCCNC2)N1 [Example 5, (R)-(3-Fluorophenyl)((2R,5S)-5-(((R)-piperidin-3-yl)methyl)pyrrolidin-2-yl)methanol dihydrochloride] | ++ (if it is between 75 and 50% it is denoted with ++) | − (if it less than 25% it is denoted with −)
7 | CS(=O)(=O)N1CCC(C[C@@H]2CC[C@H]([C@H](O)c3cccc(F)c3)N2)CC1.Cl [Example 7, (R)-(3-Fluorophenyl)((2R,5S)-5-((1-(methylsulfonyl)piperidin-4-yl)-methyl)pyrrolidin-2-yl)methanol hydrochloride] | +++ (more than 75% of that of isoproterenol at 10 μM, the activity is denoted with +++) | − (if it less than 25% it is denoted with −)
8 | CS(=O)(=O)N1CCC(C[C@@H]2CC[C@H]([C@@H](O)c3cccc(F)c3)N2)CC1.Cl [Example 8, (S)-(3-Fluorophenyl)((2R,5S)-5-((1-(methylsulfonyl)piperidin-4-yl)-methyl)pyrrolidin-2-yl)methanol hydrochloride] | ++ (if it is between 75 and 50% it is denoted with ++) | − (if it less than 25% it is denoted with −)
9 | CC(=O)N1CCC(C[C@@H]2CC[C@H]([C@H](O)c3cccc(F)c3)N2)CC1.Cl [Example 9, 1-(4-(((2S,5R)-5-((R)-(3-Fluorophenyl)(hydroxy)methyl)pyrrolidin-2-yl)methyl)piperidin-1-yl)ethan-1-one hydrochloride] | +++ (more than 75% of that of isoproterenol at 10 μM, the activity is denoted with +++) | − (if it less than 25% it is denoted with −)
10 | CC(=O)N1CCC(C[C@@H]2CC[C@H]([C@@H](O)c3cccc(F)c3)N2)CC1.Cl [Example 10, 1-(4-(((2S,5R)-5-((S)-(3-Fluorophenyl)(hydroxy)methyl)pyrrolidin-2-yl)methyl)piperidin-1-yl)ethan-1-one hydrochloride] | − (if it less than 25% it is denoted with −) | − (if it less than 25% it is denoted with −)
11 | CS(=O)(=O)N1CCC[C@H](C[C@@H]2CC[C@H]([C@@H](O)c3cccc(F)c3)N2)C1.Cl [Example 11, (S)-(3-Fluorophenyl)((2R,5S)-5-(((R)-1-(methylsulfonyl)piperidin-3-yl)methyl)pyrrolidin-2-yl)methanol hydrochloride] | + (if it is between 50 and 25% it is denoted with +) | − (if it less than 25% it is denoted with −)
12 | CS(=O)(=O)N1CCC[C@H](C[C@@H]2CC[C@H]([C@H](O)c3cccc(F)c3)N2)C1.Cl [Example 12, (R)-(3-Fluorophenyl)((2R,5S)-5-(((R)-1-(methylsulfonyl)piperidin-3-yl)methyl)pyrrolidin-2-yl)methanol hydrochloride] | +++ (more than 75% of that of isoproterenol at 10 μM, the activity is denoted with +++) | − (if it less than 25% it is denoted with −)
13 | CS(=O)(=O)N1CCC[C@@H](C[C@@H]2CC[C@H]([C@@H](O)c3cccc(F)c3)N2)C1.Cl [Example 13, (S)-(3-Fluorophenyl)((2R,5S)-5-(((S)-1-(methylsulfonyl)piperidin-3-yl)methyl)pyrrolidin-2-yl)methanol hydrochloride] | ++ (if it is between 75 and 50% it is denoted with ++) | − (if it less than 25% it is denoted with −)
14 | CS(=O)(=O)N1CCC[C@@H](C[C@@H]2CC[C@H]([C@H](O)c3cccc(F)c3)N2)C1.Cl [Example 14, (R)-(3-Fluorophenyl)((2R,5S)-5-(((S)-1-(methylsulfonyl)piperidin-3-yl)methyl)pyrrolidin-2-yl)methanol hydrochloride] | +++ (more than 75% of that of isoproterenol at 10 μM, the activity is denoted with +++) | − (if it less than 25% it is denoted with −)
15 | Cl.O[C@@H](c1cccc(F)c1)[C@H]1CC[C@@H](CC2CCOCC2)N1 [Example 15, (S)-(3-Fluorophenyl)((2R,5S)-5-((tetrahydro-2H-pyran-4-yl)methyl)-pyrrolidin-2-yl)methanol hydrochloride] | ++ (if it is between 75 and 50% it is denoted with ++) | − (if it less than 25% it is denoted with −)
16 | Cl.O[C@H](c1cccc(F)c1)[C@H]1CC[C@@H](CC2CCOCC2)N1 [Example 16, (R)-(3-Fluorophenyl)((2R,5S)-5-((tetrahydro-2H-pyran-4-yl)methyl)-pyrrolidin-2-yl)methanol hydrochloride] | +++ (more than 75% of that of isoproterenol at 10 μM, the activity is denoted with +++) | + (if it is between 50 and 25% it is denoted with +)
